One may read the MIC as the lowest concentration that inhibits growth of the organism. Read a low MIC as a more susceptible organism.

Values after ≈ are worked out from the molar mass of the structure shown.

For 6 compounds, MIC results are on record in DBAASP.

Among the test systems are Escherichia coli IP76-24; Nocardia asteroides; Escherichia coli DC2; Candida albicans C627; Escherichia coli UB1005; Proteus vulgaris.
Test in all cases: ≥ marks a high value that may be exact or a test limit, other limits are often not marked, values filed in µg/mL are converted to µM
Assay [1] relates to Enterococcus faecalis IP103214.
For assay [2], the system named is Cryptococcus neoformans IP960-67.
Assay [3] deals with Trichophyton simii IP1063-74.
For assay [4], the system named is Nocardia brasiliensis IP16-80.
Assay [5] relates to Saccharomyces cerevisiae IP118079.
The test system of assay [6] is Aspergillus fumigatus IP1025-70.
Assay [7] relates to Staphylococcus aureus IP76-25.
Assay [8] relates to Aeromonas caviae IP67-16T.
The subject of assay [9] is Candida albicans IP884-65.
For assay [10], the system named is Aspergillus niger IP218-53.
The test system of assay [11] is Enterococcus faecalis 981.
The subject of assay [12] is Staphylococcus aureus ATCC 25923.
Assay [13] has as its system Pseudomonas aeruginosa K799.
Assay [14] deals with Aeromonas salmonicida 97-4.
Assay [15] has as its system Pseudomonas aeruginosa Z61.
Assay [16] concerns Salmonella enterica subsp. enterica serovar Typhimurium ATCC 14028s.
In assay [17] the test system is Salmonella enterica serovar typhimurium MS7953s.
The test system of assay [18] is Aeromonas salmonicida 99-1.
In assay [19] the test system is Staphylococcus aureus C623.
The subject of assay [20] is Staphylococcus epidermidis C621.
For assay [21], the system named is Escherichia coli CGSC 4908.
Assay [22] deals with Candida albicans KCTC 7121.
The test system of assay [23] is Bacillus subtilis KCTC 1918.
The test system of assay [24] is Staphylococcus aureus KCTC 1621.
For assay [25], the system named is Pseudomonas aeruginosa KCTC 1637.
The test system of assay [26] is Fusarium oxysporum KCTC 6084.
Assay [27] deals with Aspergillus flavus KCTC 7375.
For assay [28], the system named is Escherichia coli KCTC 1682.
For assay [29], the system named is Bacillus megaterium KCTC 1096.
In assay [30] the test system is Trichosporon beigelii KCTC 7251.

Turning to `CC[C@H](C)[C@H](NC(=O)CNC(=O)[C@H](CCCCN)NC(=O)[C@H](CC(C)C)NC(=O)[C@H](CCSC)NC(=O)[C@H](CC(N)=O)NC(=O)[C@H](CCCCN)NC(=O)[C@H](Cc1c[nH]c2ccccc12)NC(=O)[C@H](CC(C)C)NC(=O)[C@H](C)N)C(=O)NCC(=O)N[C@@H](CCCCN)C(=O)N[C@@H](CC(C)C)C(=O)N[C@@H](C)C(=O)NCC(=O)N[C@@H](CCCCN)C(=O)N[C@@H](C)C(=O)N[C@@H](C)C(=O)N[C@@H](CC(C)C)C(=O)NCC(N)=O` [ALWKNMLKGIGKLAGKAALG], the MIC in [1] amounted to 2 µM (≈ 4.08 µg/mL); in assay [2], 1 µM (≈ 2.04 µg/mL); in [3], 15 µM (≈ 30.6 µg/mL); in assay [4], 30 µM (≈ 61.2 µg/mL); in assay [5] it was 4 µM (≈ 8.16 µg/mL); in assay [6], 15 µM (≈ 30.6 µg/mL). Moreover, the MIC in assay [7] is 8 µM (≈ 16.3 µg/mL); in assay [8], 2 µM (≈ 4.08 µg/mL); in assay [9], 4 µM (≈ 8.16 µg/mL); in assay [10] it was 15 µM (≈ 30.6 µg/mL); against Escherichia coli IP76-24, 2 µM (≈ 4.08 µg/mL).
Regarding `CC[C@H](C)[C@H](NC(=O)CNC(=O)[C@H](CCCCN)NC(=O)[C@H](CC(C)C)NC(=O)[C@H](CCSC)NC(=O)[C@H](CC(N)=O)NC(=O)[C@H](CCCCN)NC(=O)[C@H](Cc1c[nH]c2ccccc12)NC(=O)[C@H](CC(C)C)NC(=O)[C@H](C)N)C(=O)NCC(=O)N[C@@H](CCCCN)C(=O)N[C@@H](CC(C)C)C(=O)N[C@@H](C)C(=O)NCC(=O)N[C@@H](CCCCN)C(N)=O` [ALWKNMLKGIGKLAGK], the MIC in [1] was 2 µM (≈ 3.45 µg/mL); in [2], 2 µM (≈ 3.45 µg/mL); in assay [3], 8 µM (≈ 13.8 µg/mL); in [4], at least 70 µM; in assay [5], 4 µM (≈ 6.91 µg/mL); in assay [6] it was 8 µM (≈ 13.8 µg/mL). Also, the MIC was at least 60 µM in [7]; 2 µM (≈ 3.45 µg/mL) in assay [8]; 8 µM (≈ 13.8 µg/mL) in assay [9]; 15 µM (≈ 25.9 µg/mL) in assay [10]; 2 µM (≈ 3.45 µg/mL) against Escherichia coli IP76-24.
On to `CC[C@H](C)[C@H](NC(=O)[C@H](CCCCN)NC(=O)[C@@H]1CCCN1C(=O)[C@H](CC(C)C)NC(=O)[C@H](CC(C)C)NC(=O)[C@H](CO)NC(=O)CNC(=O)[C@H](CC(C)C)NC(=O)[C@H](C)NC(=O)CNC(=O)[C@H](CC(C)C)NC(=O)[C@H](CC(C)C)NC(=O)[C@H](Cc1ccccc1)NC(=O)[C@@H]1CCCN1C(=O)[C@H](Cc1ccccc1)NC(=O)[C@@H](N)Cc1ccccc1)C(=O)N[C@@H](Cc1ccccc1)C(N)=O` [FFPFLLGALGSLLPKIF], for which the MIC amounted to 25 µM (≈ 47 µg/mL) in [11], 6.3 µM (≈ 11.8 µg/mL) in the assay on Nocardia asteroides and 12.5 µM (≈ 23.5 µg/mL) in assay [12].
Turning to `CC[C@H](C)[C@H](NC(=O)[C@H](Cc1cnc[nH]1)NC(=O)[C@H](CCCCN)NC(=O)[C@H](C)NC(=O)[C@H](C)NC(=O)[C@H](Cc1cnc[nH]1)NC(=O)[C@H](CCCNC(=N)N)NC(=O)CNC(=O)[C@H](Cc1cnc[nH]1)NC(=O)[C@H](CCCCN)NC(=O)[C@H](Cc1ccccc1)NC(=O)[C@@H](NC(=O)[C@H](CO)NC(=O)CNC(=O)[C@H](Cc1c[nH]c2ccccc12)NC(=O)CN)[C@@H](C)CC)C(=O)NCC(=O)N[C@@H](Cc1cnc[nH]1)C(=O)N[C@@H](C)C(=O)N[C@@H](C)C(=O)N[C@H](C(=O)N[C@@H](CC(N)=O)C(=O)N[C@@H](Cc1cnc[nH]1)C(=O)N[C@@H](Cc1ccc(O)cc1)C(=O)N[C@@H](CC(C)C)C(C)=O)C(C)C` [GWGSIFKHGRHAAKHIGHAAVNHYL], the MIC in the assay on Escherichia coli DC2 worked out at 0.723 µM (≈ 2 µg/mL); in [13], 5.79 µM (≈ 16 µg/mL); in assay [14], 1.45 µM (≈ 4 µg/mL); in assay [15], 1.45 µM (≈ 4 µg/mL); in assay [16] it was 23.1 µM (≈ 64 µg/mL); in [17], 1.45 µM (≈ 4 µg/mL). The MIC in the assay on Candida albicans C627 was 11.6 µM (≈ 32 µg/mL); against Escherichia coli UB1005 it was 1.45 µM (≈ 4 µg/mL); in [18], 1.45 µM (≈ 4 µg/mL); in assay [19] it was 11.6 µM (≈ 32 µg/mL); in assay [20], 23.1 µM (≈ 64 µg/mL); in assay [21], 1.45 µM (≈ 4 µg/mL).
`CC[C@H](C)[C@H](NC(=O)[C@H](CCCCN)NC(=O)[C@H](CCCCN)NC(=O)[C@H](Cc1ccccc1)NC(=O)[C@H](CC(C)C)NC(=O)[C@H](CCCCN)NC(=O)[C@@H](N)Cc1c[nH]c2ccccc12)C(=O)N1CCC[C@H]1C(=O)N[C@@H](CCCCN)C(=O)N[C@@H](Cc1ccccc1)C(=O)N[C@@H](CC(C)C)C(=O)N[C@@H](Cc1cnc[nH]1)C(=O)N[C@@H](CC(C)C)C(=O)N[C@@H](C)C(=O)N[C@@H](CCCCN)C(=O)N[C@@H](CCCCN)C(=O)N[C@@H](Cc1ccccc1)C(N)=O` [WKLFKKIPKFLHLAKKF]: the MIC in assay [22] was at least 50 µM; in [23], 0.78 µM (≈ 1.69 µg/mL); in assay [24], 3.12 µM (≈ 6.79 µg/mL); in assay [25] it was 1.56 µM (≈ 3.39 µg/mL); in [26], at least 50 µM; in [27], at least 50 µM. For the same compound, the MIC is 6.25 µM (≈ 13.6 µg/mL) in assay [28], 1.56 µM (≈ 3.39 µg/mL) in assay [29], 1.56 µM (≈ 3.39 µg/mL) in the assay with Proteus vulgaris and at least 50 µM in [30].
On to `CC[C@H](C)[C@H](NC(=O)[C@H](CCCNC(=N)N)NC(=O)[C@H](CCCNC(=N)N)NC(=O)[C@H](CC(C)C)NC(=O)[C@@H](N)Cc1c[nH]c2ccccc12)C(=O)NCC(=O)N[C@@H](CCCCN)C(=O)NCC(=O)N[C@H](C(=O)N[C@@H](CCCCN)C(=O)N[C@H](C(=O)N[C@H](C(=O)NCC(=O)NCC(=O)N[C@@H](C)C(=O)N[C@@H](C)C(=O)N[C@@H](CC(C)C)C(=O)N[C@@H](CC(=O)O)C(=O)N[C@@H](Cc1cnc[nH]1)C(=O)N[C@@H](CC(C)C)C(N)=O)[C@@H](C)CC)[C@@H](C)CC)C(C)C` [WLRRIGKGVKIIGGAALDHL], for which the MIC against Escherichia coli DC2 was 29.4 µM (≈ 64 µg/mL); in assay [13], 29.4 µM (≈ 64 µg/mL); in assay [14] it was at least 58.9 µM; in [15] it was 14.7 µM (≈ 32 µg/mL); in [16] it was 29.4 µM (≈ 64 µg/mL); in assay [17], 29.4 µM (≈ 64 µg/mL). In addition, the MIC was 29.4 µM (≈ 64 µg/mL) in the assay with Candida albicans C627; 29.4 µM (≈ 64 µg/mL) with Escherichia coli UB1005; at least 58.9 µM in assay [18]; 29.4 µM (≈ 64 µg/mL) in assay [19]; 29.4 µM (≈ 64 µg/mL) in [20]; 29.4 µM (≈ 64 µg/mL) in assay [21].
